Counter-ions that a name gives are not always drawn.

Sequence of CK2A1 (CK2α/β) (P68400 whole entry, species assumed): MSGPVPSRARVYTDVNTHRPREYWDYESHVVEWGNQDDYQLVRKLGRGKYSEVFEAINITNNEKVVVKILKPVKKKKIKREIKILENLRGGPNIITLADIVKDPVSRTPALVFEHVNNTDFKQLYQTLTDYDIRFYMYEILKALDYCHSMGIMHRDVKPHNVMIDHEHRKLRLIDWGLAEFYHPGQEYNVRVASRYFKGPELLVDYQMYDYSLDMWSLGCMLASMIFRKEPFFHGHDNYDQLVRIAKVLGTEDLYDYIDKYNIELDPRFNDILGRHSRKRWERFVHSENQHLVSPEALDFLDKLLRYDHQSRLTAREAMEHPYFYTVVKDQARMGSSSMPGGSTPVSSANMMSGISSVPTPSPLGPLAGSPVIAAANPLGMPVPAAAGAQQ
Sequence of CK2A1 (CK2α/β) (P67870 whole entry partner, species assumed): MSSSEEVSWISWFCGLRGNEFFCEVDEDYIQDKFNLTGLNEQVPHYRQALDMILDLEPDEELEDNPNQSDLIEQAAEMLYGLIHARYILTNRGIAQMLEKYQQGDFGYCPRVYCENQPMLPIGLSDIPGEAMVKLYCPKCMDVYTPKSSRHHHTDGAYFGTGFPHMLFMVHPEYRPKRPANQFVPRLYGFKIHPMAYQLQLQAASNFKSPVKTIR

The assay concerns the target CK2A1 (CK2α/β) (Homo sapiens, UniProt P68400). Kind of assay: CK2 kinase assay, CK2A1 (CK2α/β). It counts as biochemical. The note with it: Table A; read-out: CK2A1 (CK2α/β) (IC50).
In the case of `CCNc1nc(Nc2cc(C#N)cc(N3CC[C@@H](NC(=O)OC)[C@H](OC(=O)[C@@H](NC(=O)[C@@H](N)CCCNC(=N)N)C(C)C)C3)c2Cl)nn2c(C#N)cnc12` [Example 823, (S)-(3R,4R)-1-(2-chloro-5-cyano-3-((7-cyano-4-(ethylamino)imidazo[2,1-f][1,2,4]triazin-2-yl)amino)phenyl)-4-((methoxycarbonyl)amino)piperidin-3-yl 2-((S)-2-amino-5-guanidinopentanamide)-3-methylbutanoate trihydrochloride], the IC50 is 2 nM.
For `CCNc1nc(Nc2ccc3c(c2)c(C#N)cn3C2CCN([C@H]3COC[C@@H]3O)CC2)nn2c(C#N)cnc12` [Example 826, 2-((3-cyano-1-(1-((3S,4R)-4-hydroxytetrahydrofuran-3-yl)piperidin-4-yl)-1H-indol-5-yl)amino)-4-(ethylamino)imidazo[2,1-f][1,2,4]triazine-7-carbonitrile], the IC50 was found to be 0.32 nM.
As for `CCNc1nc(Nc2ccc3c(c2)c(C#N)cn3C2CCN([C@H]3COC[C@@H]3O)CC2)nn2c(C#N)cnc12` [Example 827, 2-((3-cyano-1-(1-((3S,4R)-4-hydroxytetrahydrofuran-3-yl)piperidin-4-yl)-1H-indol-5-yl)amino)-4-(ethylamino)imidazo[2,1-f][1,2,4]triazine-7-carbonitrile], the figure is 0.75 nM.
The result for `CCNc1nc(Nc2ccc3c(c2)c(C#N)cn3C2CCN([C@H]3CS(=O)(=O)C[C@@H]3O)CC2)nn2c(C#N)cnc12` [Example 828, 2-((3-cyano-1-(1-((3R,4R)-4-hydroxy-1,1-dioxidotetrahydrothiophen-3-yl)piperidin-4-yl)-1H-indol-5-yl)amino)-4-(ethylamino)imidazo[2,1-f][1,2,4]triazine-7-carbonitrile] reads 0.36 nM.
For the compound `CCNc1nc(Nc2ccc3c(c2)c(C#N)cn3C2CCN([C@H]3CS(=O)(=O)C[C@H]3O)CC2)nn2c(C#N)cnc12` [Example 829, 2-((3-cyano-1-(1-((3R,4S)-4-hydroxy-1,1-dioxidotetrahydrothiophen-3-yl)piperidin-4-yl)-1H-indol-5-yl)amino)-4-(ethylamino)imidazo[2,1-f][1,2,4]triazine-7-carbonitrile], the IC50 was determined as 0.72 nM.
The result for `CCNc1nc(Nc2ccc3c(c2)c(C#N)cn3C2CCN(C[C@@H](O)CN3CCOCC3)CC2)nn2c(C#N)cnc12` [Example 830, (R)-2-((3-cyano-1-(1-(2-hydroxy-3-morpholinopropyl)piperidin-4-yl)-1H-indol-5-yl)amino)-4-(ethylamino)imidazo[2,1-f][1,2,4]triazine-7-carbonitrile] reads 0.35 nM; that for `CCNc1nc(Nc2ccc3c(c2)c(C#N)cn3C2CCN(C3CN(C(=O)OC(C)(C)C)C3)CC2)nn2c(C#N)cnc12` [Example 831, tert-butyl 3-(4-(3-cyano-5-((7-cyano-4-(ethylamino)imidazo[2,1-f][1,2,4]triazin-2-yl)amino)-1H-indol-1-yl)piperidin-1-yl)azetidine-1-carboxylate], 0.71 nM.
As for `CCNc1nc(Nc2ccc3c(c2)c(C#N)cn3C2CCN(C3CNC3)CC2)nn2c(C#N)cnc12` [Example 832, 2-((1-(1-(azetidin-3-yl)piperidin-4-yl)-3-cyano-1H-indol-5-yl)amino)-4-(ethylamino)imidazo[2,1-f][1,2,4]triazine-7-carbonitrile], the figure is 0.54 nM; as for `CCNc1nc(Nc2ccc3c(c2)c(C#N)cn3C2CCN(C3CN(C[C@@H](C)O)C3)CC2)nn2c(C#N)cnc12` [Example 833, (R)-2-((3-cyano-1-(1-(1-(2-hydroxypropyl)azetidin-3-yl)piperidin-4-yl)-1H-indol-5-yl)amino)-4-(ethylamino)imidazo[2,1-f][1,2,4]triazine-7-carbonitrile], 1.81 nM.
The result for `CCNc1nc(Nc2ccc3c(c2)c(C#N)cn3C2CCN(C3CN(C[C@H](C)O)C3)CC2)nn2c(C#N)cnc12` [Example 834, (S)-2-((3-cyano-1-(1-(1-(2-hydroxypropyl)azetidin-3-yl)piperidin-4-yl)-1H-indol-5-yl)amino)-4-(ethylamino)imidazo[2,1-f][1,2,4]triazine-7-carbonitrile] reads 0.6 nM; that for `CCNc1nc(Nc2ccc3c(c2)c(C#N)cn3C2CCN(C3CN(C4COC4)C3)CC2)nn2c(C#N)cnc12` [Example 835, 2-((3-cyano-1-(1-(1-(oxetan-3-yl)azetidin-3-yl)piperidin-4-yl)-1H-indol-5-yl)amino)-4-(ethylamino)imidazo[2,1-f][1,2,4]triazine-7-carbonitrile], 0.98 nM; that for `CCNc1nc(Nc2ccc3c(c2)c(C#N)cn3C2CCN(C3CN(C(=O)OC)C3)CC2)nn2c(C#N)cnc12` [Example 836, methyl 3-(4-(3-cyano-5-((7-cyano-4-(ethylamino)imidazo[2,1-f][1,2,4]triazin-2-yl)amino)-1H-indol-1-yl)piperidin-1-yl)azetidine-1-carboxylate], 1.44 nM.
For `CCNc1nc(Nc2ccc3c(c2)c(C#N)cn3C2CCN(C3CN(C(C)=O)C3)CC2)nn2c(C#N)cnc12` [Example 837, 2-((1-(1-(1-acetylazetidin-3-yl)piperidin-4-yl)-3-cyano-1H-indol-5-yl)amino)-4-(ethylamino)imidazo[2,1-f][1,2,4]triazine-7-carbonitrile], the IC50 came to 2.42 nM.
The result for `CCNc1nc(Nc2cc(C#N)cc(N3CC[C@@H]4[C@@H](C3)OC(=O)N4C3COC3)c2Cl)nn2c(C#N)cnc12` [Example 839, 2-((2-chloro-5-cyano-3-((3aR,7aR)-1-(oxetan-3-yl)-2-oxohexahydrooxazolo[5,4-c]pyridin-5(2H)-yl)phenyl)amino)-4-(ethylamino)imidazo[2,1-f][1,2,4]triazine-7-carbonitrile] reads 1.19 nM.
The result for `CCNc1nc(Nc2cc(C#N)cc(N3CC[C@H]4[C@H](C3)OC(=O)N4C3COC3)c2Cl)nn2c(C#N)cnc12` [Example 840, 2-((2-chloro-5-cyano-3-((3aS,7aS)-1-(oxetan-3-yl)-2-oxohexahydrooxazolo[5,4-c]pyridin-5(2H)-yl)phenyl)amino)-4-(ethylamino)imidazo[2,1-f][1,2,4]triazine-7-carbonitrile] reads 1.74 nM; that for `CCNc1nc(Nc2cc(C#N)cc(N3CC[C@@H]4[C@@H](C3)OC(=O)N4C3CCOCC3)c2Cl)nn2c(C#N)cnc12` [Example 845], 0.92 nM.
As for `CCNc1nc(Nc2cc(C#N)cc(N[C@@H]3CCN(C(=O)OC)C[C@H]3O)c2Cl)nn2c(C#N)cnc12` [Example 846, (3R,4R)-methyl 4-((2-chloro-5-cyano-3-((7-cyano-4-(ethylamino)imidazo[2,1-f][1,2,4]triazin-2-yl)amino)phenyl)amino)-3-hydroxypiperidine-1-carboxylate], the figure is 17.3 nM.

The values are drawn from patent US9273057B2 (Bristol-Myers Squibb Company, priority 2012, dated 2016).
